Results published in the CheMixHub ionic liquid set.

Test: xn = mol fraction of the nth substance listed

CCCCCCCC[n+]1ccc(C)cc1.[Br-] + CO/N=C(\C(=O)N[C@@H]1C(=O)N2C(C(=O)[O-])=C(CSc3nc(=O)c(=O)[n-]n3C)CS[C@H]12)c1csc(N)n1.[Na+].[Na+] + O
viscosity [mPa·s], 100 kPa
Details | 288.15 K | 293.15 K | 298.15 K | 303.15 K | 308.15 K
x2 = 0, x1 = 0.0006354 | 1.179 | 1.031 | 0.915 | 0.817 | 0.737
x2 = 0, x1 = 0.0009577 | 1.196 | 1.046 | 0.929 | 0.833 | 0.749
x2 = 0, x1 = 0.001283 | 1.217 | 1.063 | 0.941 | 0.844 | 0.76
x2 = 0.0003362, x1 = 0.0009574 | 1.244 | 1.089 | 0.97 | 0.867 | 0.781
x2 = 0.0003451, x1 = 0.001283 | 1.269 | 1.108 | 0.977 | 0.863 | 0.786
x2 = 0.0003509, x1 = 0.0006352 | 1.243 | 1.076 | 0.949 | 0.847 | 0.77
x2 = 0.0008524, x1 = 0.0006349 | 1.314 | 1.15 | 1.021 | 0.909 | 0.816
x2 = 0.0008642, x1 = 0.001282 | 1.358 | 1.183 | 1.047 | 0.937 | 0.842
x2 = 0.0008856, x1 = 0.0009569 | 1.333 | 1.169 | 1.039 | 0.929 | 0.828
x2 = 0.001395, x1 = 0.0006346 | 1.411 | 1.235 | 1.094 | 0.974 | 0.873
x2 = 0.0014, x1 = 0.0009564 | 1.452 | 1.252 | 1.109 | 0.989 | 0.885
x2 = 0.00141, x1 = 0.001281 | 1.459 | 1.271 | 1.124 | 1.004 | 0.901
x2 = 0.001941, x1 = 0.0006342 | 1.52 | 1.33 | 1.174 | 1.046 | 0.936
x2 = 0.001965, x1 = 0.0009558 | 1.543 | 1.351 | 1.194 | 1.064 | 0.953
x2 = 0.00197, x1 = 0.001281 | 1.576 | 1.374 | 1.209 | 1.084 | 0.97
x2 = 0.002508, x1 = 0.0006339 | 1.642 | 1.433 | 1.264 | 1.124 | 1.006
x2 = 0.00254, x1 = 0.0009553 | 1.671 | 1.46 | 1.287 | 1.145 | 1.023
x2 = 0.00255, x1 = 0.00128 | 1.705 | 1.487 | 1.308 | 1.165 | 1.042
x2 = 0.003119, x1 = 0.0006335 | 1.786 | 1.558 | 1.372 | 1.219 | 1.091
x2 = 0.003121, x1 = 0.0009547 | 1.817 | 1.587 | 1.397 | 1.239 | 1.108
x2 = 0.003147, x1 = 0.001279 | 1.858 | 1.622 | 1.427 | 1.267 | 1.133
x2 = 0.003941, x1 = 0.0006329 | 2.01 | 1.747 | 1.535 | 1.359 | 1.212
x2 = 0.003972, x1 = 0.0009539 | 2.048 | 1.776 | 1.562 | 1.382 | 1.233
x2 = 0.003997, x1 = 0.001278 | 2.093 | 1.814 | 1.593 | 1.411 | 1.256
x2 = 0.004812, x1 = 0.0006324 | 2.281 | 1.979 | 1.732 | 1.528 | 1.36
x2 = 0.004853, x1 = 0.0009531 | 2.331 | 2.019 | 1.768 | 1.557 | 1.385
x2 = 0.004881, x1 = 0.001277 | 2.385 | 2.057 | 1.804 | 1.588 | 1.409
x2 = 0.005508, x1 = 0.000632 | 2.52 | 2.189 | 1.911 | 1.681 | 1.492
x2 = 0.005554, x1 = 0.0009524 | 2.59 | 2.238 | 1.952 | 1.714 | 1.52
x2 = 0.005588, x1 = 0.001276 | 2.64 | 2.289 | 1.996 | 1.757 | 1.559

CCCCCCCCCCCC[P+](CCCC)(CCCC)CCCC.c1c[n-]nn1 + COCCOCCOCCOCCOC
100 kPa
Details | viscosity [mPa·s]
278.15 K, x2 = 0.305 | 361
278.15 K, x2 = 0.596 | 73
288.15 K, x2 = 0.123 | 549
288.15 K, x2 = 0.395 | 124
293.15 K, x2 = 0.123 | 383
293.15 K, x2 = 0.495 | 59
298.15 K, x2 = 0.305 | 107

CCOCC[n+]1ccn(CCC#N)c1.O=S(=O)([N-]S(=O)(=O)C(F)(F)F)C(F)(F)F + CS(C)=O
101.3 kPa
Details | electrical conductivity [S/m] | viscosity [mPa·s]
293.15 K, x1 = 0.0989 | 0.00113 | –
293.15 K, x1 = 0.1981 | 0.00401 | –
293.15 K, x1 = 0.2776 | 0.00964 | –
293.15 K, x1 = 0.597 | 0.0383 | 59.7
293.15 K, x1 = 0.798 | – | 102.3
293.15 K, x1 = 0.89 | 0.0703 | 210.3
303.15 K, x1 = 0.0989 | 0.00132 | –
303.15 K, x1 = 0.1981 | 0.00478 | –
303.15 K, x1 = 0.721 | 0.0577 | 40.7
313.15 K, x1 = 0.0989 | 0.00155 | –
313.15 K, x1 = 0.1981 | 0.00607 | –
323.15 K, x1 = 0.0989 | 0.00196 | 3.457
323.15 K, x1 = 0.1981 | 0.00772 | 4.04
323.15 K, x1 = 0.3971 | 0.0389 | 9.78
323.15 K, x1 = 0.5029 | 0.0621 | 13.05
323.15 K, x1 = 0.721 | 0.108 | 20.71

CC[n+]1ccn(C)c1.N#C[S-] + CS(C)=O
101 kPa, x1 = 0.3333
Details | viscosity [mPa·s]
293.15 K | 3.24
308.15 K | 2.36
328.15 K | 1.57

CCCCCCCCCCCCCCCC[n+]1ccccc1.[Cl-] + CS(C)=O + O
electrical conductivity [S/m], 100 kPa
Details | 293.15 K | 298.15 K | 303.15 K | 308.15 K
x1 = 3.75e-06, x2 = 0.01199 | 0.0021 | 0.0024 | 0.0024 | 0.0026
x1 = 3.9e-06, x2 = 0.02499 | 0.0019 | 0.002 | 0.0023 | 0.0023
x1 = 4.07e-06, x2 = 0.03911 | 0.0015 | 0.0016 | 0.0017 | 0.0019
x1 = 4.26e-06, x2 = 0.05452 | 0.0014 | 0.0015 | 0.0017 | 0.0019
x1 = 7.5e-06, x2 = 0.01199 | 0.0037 | 0.0042 | 0.0044 | 0.0047
x1 = 7.81e-06, x2 = 0.02499 | 0.0034 | 0.0036 | 0.0041 | 0.0044
x1 = 8.15e-06, x2 = 0.03911 | – | 0.0032 | 0.0037 | 0.0041
x1 = 8.52e-06, x2 = 0.05452 | 0.0027 | 0.0029 | – | 0.0037
x1 = 1.124e-05, x2 = 0.01199 | 0.0053 | 0.006 | 0.0065 | 0.0071
x1 = 1.171e-05, x2 = 0.02499 | 0.0049 | 0.0053 | 0.0059 | 0.0065
x1 = 1.222e-05, x2 = 0.03911 | 0.0045 | 0.0048 | 0.0055 | 0.0062
x1 = 1.278e-05, x2 = 0.05452 | 0.0041 | 0.0044 | 0.0049 | 0.0055
x1 = 1.499e-05, x2 = 0.01199 | 0.0071 | 0.0078 | 0.0086 | 0.0094
x1 = 1.562e-05, x2 = 0.02499 | 0.0063 | 0.0071 | 0.0077 | 0.0089
x1 = 1.63e-05, x2 = 0.03911 | 0.006 | 0.0065 | 0.0075 | 0.0086
x1 = 1.704e-05, x2 = 0.05452 | 0.0056 | 0.0059 | 0.0066 | 0.0075
x1 = 1.874e-05, x2 = 0.01199 | 0.0085 | 0.0095 | – | –
x1 = 1.952e-05, x2 = 0.02499 | 0.0078 | 0.0088 | 0.0097 | –
x1 = 2.037e-05, x2 = 0.03911 | 0.0075 | 0.0082 | 0.0095 | –
x1 = 2.13e-05, x2 = 0.05452 | 0.0069 | 0.0075 | 0.0083 | 0.0094
x1 = 2.249e-05, x2 = 0.01199 | 0.0095 | – | – | –
x1 = 2.343e-05, x2 = 0.02499 | 0.0095 | – | – | –
x1 = 2.444e-05, x2 = 0.03911 | 0.0091 | 0.0098 | – | –
x1 = 2.556e-05, x2 = 0.05452 | 0.0082 | 0.009 | 0.01 | –
x1 = 2.981e-05, x2 = 0.05452 | 0.0092 | – | – | –

CCCCCCCCCCCC[N+](C)(C)C.[Br-] + CS(C)=O + O
298 K, 101 kPa
Details | electrical conductivity [S/m]
x2 = 0.05957, x1 = 0.0001378 | 0.0321
x2 = 0.09776, x1 = 0.001524 | 0.181
